Data: patent USRE38332E1, “Selected soluble esters of hydroxyl-containing indolocarbazoles” (Cephalon, Inc., priority 1995, dated 2003)

Assays:
[1] = tested on: ChAT activity in spinal cord cultures; test: Effect of indolocarbazole esters on ChAT activity in dissociated spinal cord cultures; type: cell-based, rat
Method: The effect of indolocarbazole esters of the invention on ChAT activity was assayed in dissociated spinal cord cultures prepared from fetal rats. ChAT is the enzyme that catalyzes the synthesis of the neurotransmitter acetylcholine, and it is a specific biochemical marker for cholinergic neurons. In the spinal cord, the large majority of cholinergic neurons are motor neurons. Assay of this enzyme may thus be used as an indication of the effects of a factor (or factors) on the survival and/or differentiation of cholinergic neurons and/or regulation of this enzyme. The procedure used for the assay is that described in Example 6 of WO 94/02488. Fourteen esters were tested in the spinal cord ChAT assay to determine their relative efficacy, and the results are summarized in Table 4.

[2] = Stability of the esters in buffered solution (conversion to indolocarbazole I-5, HPLC); type: physicochemical; settings: buffer solutions, 24 hours
Method: Solution 5 was a DMSO control.
HPLC conditions were as follows:
The pH of the compounds in water varied from 2 to 5 while the buffers remained approximately the same at 3.6, 6.7 and 7.8 for the 10 mM acetate, phosphate and Tris, respectively.
Acetate buffers at pH 2, 3, 4, 5 and 6 were prepared as follows. A total of 6.8 g of sodium acetate trihydrate was added to one liter of water, and the mixture was stirred until the solid was completely dissolved. One hundred ml aliquots were placed into 150 ml Erlenmeyer flasks, and the pH values were adjusted with HCl to pH 2, 3, 4, 5, and 6. A concentration of 50 mM was chosen to reduce the effects of compound addition. The indolocarbazole ester of Example 14 was investigated only with the acetate buffers. The rates of conversion of I-5 (the appearance of indolocarbazole I-5) as a function of pH are shown in FIGS. 3, 4, and 5 for the indolocarbazole esters of Examples 14, 8, and 11, respectively.

[3] = In vitro metabolism of I-5 esters in rat liver S-9 fraction; type: in vitro ADME; settings: 2 mg/mL protein, 5000 ng/mL
Method: (§1) Rat and human liver S-9 fractions (a mixture of cytosol and microsomes) were frozen immediately after preparation. Each aliquot was thawed once for use in incubations. Stock solutions of the indolocarbazole esters were prepared in DMSO. These were used to prepare standard curves in heat inactivated S-9 fraction that had been diluted with 0.2M phosphate buffer, pH 7.4 to yield a 2 mg/mL protein concentration. Heat inactivated S-9 was divided into 500 μL aliquots, mixed with an aliquot of the internal standard, and spiked with the respective stock ester solutions to prepare the standard curve. Incubations containing liver S-9 fraction were prepared by diluting the S-9 fraction in 0.2M phosphate buffer, pH 7.4 to yield a 2 mg/mL protein concentration. Samples (500 μL) were placed in screw-cap vials, mixed with internal standard, and spiked with stock solutions of the respective esters to yield a nominal concentration of 5000 ng/mL.
(§2) Incubations were then performed at 37° C. in a shaking water bath for 0, 0.5, 1, 2, 5, 10, 15, 30, and 60 minutes and quenched by addition of 5 mL methylene chloride. All tubes (standards and experimentals) were extracted for 15 minutes by shaking, and centrifuged. The methylene chloride layer was removed, dried under a stream of nitrogen, and reconstituted in DMSO. Fifty μL of the reconstituted extracts were analyzed by reverse-phase HPLC with detection at 290 nm. The mobile phase and gradient conditions are given below: […]

[4] = In vitro metabolism of I-5 esters in human liver S-9 fraction; type: in vitro ADME; settings: 2 mg/mL protein
Method: as §1
as §2, with “The methylene chloride layer was removed, dried under a stream of nitrogen, and reconstituted in DMSO.” left out, “nm.” for “nm. The mobile phase and gradient conditions are given below:”

[5] = In vivo metabolism and intravenous pharmacokinetics of I-5 esters in male Sprague-Dawley rats; settings: intravenous, rat; for hydrolysis to indolocarbazole I-5 in vivo: 5 mg/kg dose of I-5 equivalent
Method: Groups of 12 male Sprague-Dawley rats were administered either DMAB dihydrochloride or β-alaninate hydrochloride through the lateral tail vein in a vehicle consisting of 0.05M acetate buffer, pH 5.0 containing 20% polyethylene glycol. The volume of the dosing solution was adjusted on the basis of body weight to deliver a 5 mg/kg dose of indolocarbazole I-5 after complete hydrolysis of the respective indolocarbazole ester. At 5, 30, 60, and 120 minutes after injection, the animals were anesthetized with carbon dioxide and a sample of whole blood was obtained by cardiac puncture. The blood was placed into a 10 mL heparinized tube containing 100 μL 50% potassium fluoride (an inhibitor of plasma esterases). Following centrifugation, the resulting plasma was frozen in a dry-ice/isopropanol bath and kept frozen at −90° C. prior to analysis.
(§3) For analysis, the samples were thawed, internal standard was added, and the mixture was extracted with 5 mL methylene chloride. Standards in rat plasma were prepared as described previously. All tubes (standards and experimentals) were extracted for 15 minutes by shaking, and centrifuged. The methylene chloride layer was removed, dried under a stream of nitrogen, and reconstituted in DMSO. Fifty μL of the reconstituted extracts were analyzed by reverse-phase HPLC with detection at 290 nm. The mobile phase and gradient conditions are the same as those given in Example 17.

[6] = Solubility of the esters at 1 mg/ml in water and buffer solutions; settings: for solubility in Tris buffer: 10 mM Tris buffer pH 9; for solubility in acetate buffer: 10 mM acetate buffer pH 4; for solubility in phosphate buffer: 10 mM phosphate buffer pH 7; for solubility in water: water (Solution 1)
Method: Indolocarbazole esters were dissolved in water, dimethylsulfoxide (DMSO) and the following buffer solutions to determine solubility and to observe conversion to indolocarbazole I-5. Samples were analyzed by HPLC using UV detection at 290 nm.
Solution 2 was a 10 mM acetate buffer at pH 4 which was prepared by weighing 0.68 g of sodium acetate 3H2O into 500 ml of water and adjusting the pH with acetic acid.
Solution 3 was a 10 mM phosphate buffer, pH 7, which was prepared by weighing 0.30 g of monobasic sodium phosphate and 0.36 g of dibasic sodium phosphate into 500 ml of water, stirring until completely dissolved, and adjusting the pH with hydrochloric acid.
Solution 4 was a 10 mM Tris buffer, pH 9, which was prepared by weighing 0.79 g of Tris (tris(hydroxymethyl)aminomethane hydrochloride) into 500 ml of water, stirring until completely dissolved, and adjusting the pH with sodium hydroxide.
Sample solutions were prepared by weighing 0.5-1 mg of the indolocarbazole ester into an amber 1.5 ml autosampler vial, to which the appropriate quantity of one of the buffer solutions was added, in order to achieve a final concentration of 1 mg/ml. The sample solutions were vortexed and sonicated for 10 minutes. Fifty μl aliquots were placed into 1.5 ml amber autosampler vials. The reaction was quenched at a selected time interval by addition of 450 μl DMSO to the vial.

[7] = tested on: Dunning R-3327 AT-2 rat prostate tumor; test: Anti-tumor efficacy against the androgen-independent AT-2 rat prostate tumor; type: in vivo; settings: for Tumor volume Day 0: Day 0, daily sc dosing; for Tumor volume Day 0 / Tumor volume Day 3 / Tumor volume Day 6 / Tumor volume Day 9 / Tumor volume Day 13: Mean ± SE; for Tumor volume Day 3: Day 3, daily sc dosing; for Tumor volume Day 6: Day 6, daily sc dosing; for Tumor volume Day 9: Day 9, daily sc dosing; for Tumor volume Day 13: Day 13, daily sc dosing; for inhibiting the growth of AT-2 tumors: adult male Copenhagen rats; for inhibition of tumor growth: by Day 13 of dosing
Method: Rat prostate cancer Dunning R-3327 AT-2.1 cells (Isaacs et al., Prostate 9:261-281, 1986) were grown at 37 C. in a humidified incubator, with a 95% air/5% CO2 atmosphere, in RPMI-1640 medium containing 10% fetal calf serum, 250 nM dexamethasone, 2 mM glutamine, penicillin (100 I.U./mL), and streptomycin (100 μg/mL), and 1 mM sodium pyruvate. The cells were determined to be free of mycoplasma and rodent viruses (MAP testing) by Microbiological Associates. Exponentially growing cells were harvested using 6 mL of warm trypsin. The total volume was brought up to 10 mL with media to neutralize trypsin and cells were counted. The cells were then collected by brief centrifugation, and cell pellet was resuspended in Hanks' Balanced Salt Solution to achieve the final concentration of 1×10^7 live cells/mL.
Male inbred Copenhagen rats (200-225 g) obtained from Harlan Sprague-Dawley, Indianapolis, Ind., were maintained three rats/cage and given a commercial diet (Purina Formulab 5001) and water ad libitum. Animals were housed under humidity- and temperature-controlled conditions and light/dark cycle was set at 12-hour intervals. Rats were quarantined for one week before experimental manipulation. Tumor cell implantation and growth
Fifty adult male Copenhagen rats were inoculated with live AT-2 cells (1×10^6 cells/rat) into their right flank. Seven days later, rats bearing AT-2 tumors (approximately 0.5‥0.7 cm^3 in volume) were divided into five groups of ten animals each. A description of the experimental groups is given below. Dosing volumes of either I-5 or its lysyl-β-alaninate ester (1 mL/kg) were based on the average weight of the animals in each dosing group and were adjusted as necessary twice a week. Tumors were measured in anesthetized animals (isofluorane vapor for approximately 1-2 minutes) every 3-4 days using a vernier caliper. Tumor volume was calculated using the formula:
V(cm)=0.5236×length(cm)×width(cm)[(length(cm)+width(cm))/2].
Indolocarbazole I-5 was dissolved in vehicle defined below:
(I-5)-Lysyl-β-alaninate was dissolved in 50 mM sodium acetate buffer, pH 5.5.

[8] = tested on: Dunning R-3327 AT-2 rat prostate tumor; settings: see WO 94/27982; cited from earlier work
[9] = Route-to-route comparison of indolocarbazole I-5 formation from lysyl-β-alaninate in rats; type: in vivo, rat; settings: for plasma levels of indolocarbazole I-5: intravenous 8.01 mg/kg
Method: Groups of 12 male Sprague-Dawley rats were administered lysyl-β-alaninate dihydrochloride via intravenous or subcutaneous injection, as well as by oral gavage at a dose of 8.01 mg/kg. This dose was designed to deliver a 5 mg/kg equivalent dose of indolocarbazole I-5 following complete hydrolysis of the indolocarbazole ester. The volume of the dosing solution was adjusted on the basis of body weight. At 5, 30, 60, and 120 minutes after intravenous injection and 30, 60, 120, and 240 minutes after either subcutaneous injection or oral gavage, the animals were anesthetized with carbon dioxide and a sample of whole blood was obtained by cardiac puncture. The blood was placed into a heparinized container containing 100 μL 50% potassium fluoride (an inhibitor of plasma esterases) and 10 μL phenylmethylsulfonylfluoride (an inhibitor of plasma amidase). Following centrifugation, the resulting plasma was frozen in a dry-ice/isopropanol bath and kept frozen at −90° C. prior to analysis.
as §3, with “extracts was” for “extracts were”

rate of conversion to indolocarbazole I-5 [2]	hydrolysis of the ester [3]	rates of hydrolysis [4]	hydrolysis to indolocarbazole I-5 in vivo [5]	time ester could be detected in plasma following administration [5]	solubility in Tris buffer [6]	solubility in acetate buffer [6]	solubility in phosphate buffer [6]	solubility in water [6]	Structure (SMILES)	Spinal Cord ChAT Activity (% of Control) 500 nM [1]	Spinal Cord ChAT Activity (% of Control) 1000 nM [1]	Tumor volume Day 0 [7]	Tumor volume Day 3 [7]	Tumor volume Day 6 [7]	Tumor volume Day 9 [7]	Tumor volume Day 13 [7]	inhibiting the growth of AT-2 tumors [7]	inhibition of tumor growth [7]	other results
low rate of conversion	rapid hydrolysis	similar	rapidly hydrolyzed	two	not completely soluble	completely soluble	not completely soluble	completely soluble	COC1(COC(=O)CC(C)N(C)C)CC2OC1(C)n1c3ccccc3c3c4c(c5c6ccccc6n2c5c31)C(=O)NC4.Cl (stereo not shown) [Example 8, (I-5)-Dimethylaminobutyrate Hydrochloride]	inactive	138 % of Control								
									COC1(CO)CC2OC1(C)n1c3ccccc3c3c4c(c5c6ccccc6n2c5c31)C(=O)NC4 (stereo not shown) [Example I-5, reference compound]			0.7 ± 0.1 cm^3	1.6 ± 0.2 cm^3	2.1 ± 0.1 cm^3	5.4 ± 0.7 cm^3	11.6 ± 1.8 cm^3	effective	53%	growth inhibition of Dunning R-3327 AT-2 rat prostate tumor in vivo [8]: growth inhibitory properties
	rate of hydrolysis was markedly reduced	similar	rapidly hydrolyzed	one	not completely soluble	completely soluble	not completely soluble	completely soluble	COC1(COC(=O)CCN)CC2OC1(C)n1c3ccccc3c3c4c(c5c6ccccc6n2c5c31)C(=O)NC4.Cl (stereo not drawn) [Example 11, (I-5)-β-Alaninate Hydrochloride]	138 % of Control	149 % of Control								

Structure (SMILES)	rate of conversion to indolocarbazole I-5 [2]	hydrolysis of the ester [3]	rates of hydrolysis [4]	hydrolysis to indolocarbazole I-5 in vivo [5]	time ester could be detected in plasma following administration [5]	solubility in Tris buffer [6]	solubility in acetate buffer [6]	solubility in phosphate buffer [6]	solubility in water [6]	Spinal Cord ChAT Activity (% of Control) 500 nM [1]	Spinal Cord ChAT Activity (% of Control) 1000 nM [1]	Tumor volume Day 0 [7]	Tumor volume Day 3 [7]	Tumor volume Day 6 [7]	Tumor volume Day 9 [7]	Tumor volume Day 13 [7]	inhibiting the growth of AT-2 tumors [7]	inhibition of tumor growth [7]	other results
COC1(COC(=O)CCNC(=O)C(N)CCCCN)CC2OC1(C)n1c3ccccc3c3c4c(c5c6ccccc6n2c5c31)C(=O)NC4.Cl.Cl (stereo not drawn) [Example 14, (I-5)-Lysyl-β-Alaninate Dihydrochloride]	low rate of conversion	initial hydrolysis of the amide bond between the two amino acids appears to be the first metabolic event followed by hydrolysis of the ester linkage				completely soluble	completely soluble	completely soluble	completely soluble	121 % of Control	147 % of Control	0.6 ± 0.1 cm^3	1.5 ± 0.2 cm^3	2.1 ± 0.2 cm^3	4.8 ± 0.6 cm^3	8.3 ± 0.5 cm^3	effective	72%	plasma levels of indolocarbazole I-5 ([9]; 5 minutes after dosing): approximately 600 ng/mL; plasma levels of indolocarbazole I-5 ([9]; 2 hours after dosing): approximately 80 ng/mL; plasma levels of I-5 ([9]; oral dose 8.01 mg/kg, limit of quantitation): < 50 ng/mL; conversion to I-5 in vivo ([9]; rat): rapidly converted; plasma levels of I-5 ([9]; subcutaneous 8.01 mg/kg, all time points examined): approximately 70 ng/mL
